For 29 compounds, IC50 results are on record in patent publication US10723723B2, “Substituted bicycle heterocyclic derivatives useful as ROMK channel inhibitors” (BRISTOL-MYERS SQUIBB COMPANY, priority 2016, dated 2020).

SMILES strings stand for the structures.

This test deals with hROMK (human Kir1.1) (Homo sapiens (Human), UniProt P48048). The test is described as follows: Thallium Flux Assay (FluxOR, CHO T-Rex hROMK stable cell line). The format is cell-based. The settings on record: CHO T-Rex hROMK cells, 10-point concentration response curve; read-out: Human ROMK TH Flux IC50.
Chain of hROMK (human Kir1.1) (P48048 whole entry): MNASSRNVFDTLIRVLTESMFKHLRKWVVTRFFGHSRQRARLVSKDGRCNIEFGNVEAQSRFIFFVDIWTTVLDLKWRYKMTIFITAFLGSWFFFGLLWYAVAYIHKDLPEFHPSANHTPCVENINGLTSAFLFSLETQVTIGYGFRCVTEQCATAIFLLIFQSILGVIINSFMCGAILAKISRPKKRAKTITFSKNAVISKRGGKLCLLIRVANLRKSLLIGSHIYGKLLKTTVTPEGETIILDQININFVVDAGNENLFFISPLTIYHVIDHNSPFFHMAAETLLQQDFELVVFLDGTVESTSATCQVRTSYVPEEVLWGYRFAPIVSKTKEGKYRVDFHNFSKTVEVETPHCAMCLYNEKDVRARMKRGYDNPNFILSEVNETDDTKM
As for `Cc1cc(-n2cc(CNC[C@H](O)c3ccc4c(c3C)COC4=O)cn2)cc(C)n1` [Example 164, (R)-5-(2-(((1-(2,6-dimethylpyridin-4-yl)-1H-pyrazol-4-yl)methyl)amino)-1-hydroxyethyl)-4-methylisobenzofuran-1(3H)-one], the IC50 (in general, the point on the concentration scale where inhibition reaches its midpoint) is 280 nM. On to `Cc1c(C(O)CNCc2ccc3c(cnn3-c3ccc(F)cc3)c2)ccc2c1COC2=O` (single isomer, unassigned) [Example 16-I, 5-(2-(((1-(4-fluorophenyl)-1H-indazol-5-yl)methyl)amino)-1-hydroxyethyl)-4-methylisobenzofuran-1(3H)-one], for which the IC50 was found to be 480 nM.

In the case of `Cc1c(C(CO)NCCc2cccc(-c3ccc(C#N)c(F)c3)c2)ccc2c1COC2=O` (single isomer, unassigned) [Example 15-II, 3-fluoro-3′-(2-((2-hydroxy-1-(4-methyl-1-oxo-1,3-dihydroisobenzofuran-5-yl)ethyl)amino)ethy)-[1,1′-biphenyl]-4-carbonitrile], the IC50 came out at 1500 nM.

Turning to `Cc1c([C@@H](O)CNCc2cnn(-c3cccc(N4CCOC4=O)c3)c2)ccc2c1COC2=O` [Example 158, (R)-3-(3-(4-(((2-hydroxy-2-(4-methyl-1-oxo-1,3-dihydroisobenzofuran-5-yl)ethyl)amino)methyl)-1H-pyrazol-1-yl)phenyl)oxazolidin-2-one], the IC50 was 390 nM. In the case of `Cc1c(C(O)CN(C)Cc2ccc(-n3ccc4cc(C#N)ccc43)cc2)ccc2c1COC2=O` (single isomer, unassigned) [Example 32-I, 1-(4-(((2-hydroxy-2-(4-methyl-1-oxo-1,3-dihydroisobenzofuran-5-yl)ethyl)(methyl)amino)methyl)phenyl)-1H-indole-5-carbonitrile], the IC50 worked out at 530 nM. With `Cc1cc(-n2cc(CNC[C@@H](c3ccc4c(c3C)COC4=O)N(C)S(C)(=O)=O)cn2)ncc1C#N` [Example 65, (R)-N-(2-(((1-(5-cyano-4-methylpyridin-2-yl)-1H-pyrazol-4-yl)methyl)amino)-1-(4-methyl-1-oxo-1,3-dihydroisobenzofuran-5-yl)ethyl)-N-methylmethanesulfonamide] the figure was 38 nM; with `COc1cc(-c2ncc(CNC[C@H](O)c3ccc4c(c3C)COC4=O)s2)ncc1C#N` [Example 129, (R)-6-(5-(((2-hydroxy-2-(4-methyl-1-oxo-1,3-dihydroisobenzofuran-5-yl)ethyl)amino)methyl)thiazol-2-yl)-4-methoxynicotinonitrile], 8 nM; with `Cc1c(C(O)CN(C)Cc2cnc(-n3ncc4c(C#N)cccc43)nc2)ccc2c1COC2=O` (single isomer, unassigned) [Example 18-I, 1-(5-(((2-hydroxy-2-(4-methyl-1-oxo-1,3-dihydroisobenzofuran-5-yl)ethyl)(methyl)amino)methyl)pyrimidin-2-yl)-1H-indazole-4-carbonitrile], 230 nM. `Cc1c([C@@H](O)CNC(C)(C)c2cnn(-c3ccc4oc(=O)n(C)c4c3)c2)ccc2c1COC2=O` [Example 37, (R)-5-(4-(2-((2-hydroxy-2-(4-methyl-1-oxo-1,3-dihydroisobenzofuran-5-yl)ethyl)amino)propan-2-yl)-1H-pyrazol-1-yl)-3-methylbenzo[d]oxazol-2(3H)-one]: the IC50 came to 930 nM. For `Cc1c([C@@H](O)CNCc2cnn(-c3ccc4oc(=O)[nH]c4c3)c2)ccc2c1COC2=O` [Example 121, (R)-5-(4-(((2-hydroxy-2-(4-methyl-1-oxo-1,3-dihydroisobenzofuran-5-yl)ethyl)amino)methyl)-1H-pyrazol-1-yl)benzo[d]oxazol-2(3H)-one] the value was 160 nM; for `Cc1cc(-n2cc(CCNC(=O)Cc3ccc4c(c3C)COC4=O)cn2)ncc1C#N` [Example 38, N-(2-(1-(5-cyano-4-methylpyridin-2-yl)-1H-pyrazol-4-yl)ethyl)-2-(4-methyl-1-oxo-1,3-dihydroisobenzofuran-5-yl)acetamide], 340 nM. In the case of `Cc1c([C@@H](O)CN(C)Cc2ccc(-c3ccc4oc(=O)n(C)c4c3)cn2)ccc2c1COC2=O` (single isomer, unassigned) [Example 84], the IC50 is 82 nM. For the compound `Cc1c([C@@H](O)CNCc2cnn(-c3cnccn3)c2)ccc2c1COC2=O` [Example 165, (R)-5-(1-hydroxy-2-(((1-(pyrazin-2-yl)-1H-pyrazol-4-yl)methyl)amino)ethyl)-4-methylisobenzofuran-1(3H)-one], the IC50 is 470 nM. For the compound `Cc1c([C@@H](O)CNCc2cnn(-c3cc(N4CCCC4)c(C#N)cn3)c2)ccc2c1COC2=O` [Example 119, (R)-6-(4-(((2-hydroxy-2-(4-methyl-1-oxo-1,3-dihydroisobenzofuran-5-yl)ethyl)amino)methyl)-1H-pyrazol-1-yl)-4-(pyrrolidin-1-yl)nicotinonitrile], the IC50 was 91 nM.

Consider `Cc1cc(-n2cc(CN(CC3CCOC3)C[C@H](O)c3ccc4c(c3C)COC4=O)cn2)ncc1C#N` (stereo partly drawn) [Example 85, 6-(4-((((R)-2-hydroxy-2-(4-methyl-1-oxo-1,3-dihydroisobenzofuran-5-yl)ethyl)((tetrahydrofuran-3-yl)methyl)amino)methyl)-1H-pyrazol-1-yl)-4-methylnicotinonitrile], for which the IC50 was found to be 230 nM. Consider `Cc1c([C@@H](O)CNCc2c[nH]c(-c3ccc4oc(=O)n(C)c4c3)n2)ccc2c1COC2=O` [Example 126, (R)-5-(4-(((2-hydroxy-2-(4-methyl-1-oxo-1,3-dihydroisobenzofuran-5-yl)ethyl)amino)methyl)-1H-imidazol-2-yl)-3-methylbenzo[d]oxazol-2(3H)-one], for which the IC50 was 580 nM. For the compound `Cc1c([C@@H](O)CNCc2ccc(-c3cnn(C)c3)nc2)ccc2c1COC2=O` [Example 124, (R)-5-(1-hydroxy-2-(((6-(1-methyl-1H-pyrazol-4-yl)pyridin-3-y)methyl)amino)ethyl)-4-methylisobenzofuran-1(3H)-one], the IC50 was 260 nM. With `Cc1cc(-n2ccc3cc(CN(C)CC(O)c4ccc5c(c4C)COC5=O)ccc32)ncc1C#N` (single isomer, unassigned) [Example 33-I, 6-(5-(((2-hydroxy-2-(4-methyl-1-oxo-1,3-dihydroisobenzofuran-5-yl)ethyl)(methyl)amino)methyl)-1H-indol-1-yl)-4-methylnicotinonitrile] the figure was 3300 nM. In the case of `CC(=O)N(Cc1ccc(-c2ccc(C#N)c(F)c2)cc1)CC(O)c1ccc2c(c1C)COC2=O` (single isomer, unassigned) [Example 34-I, N-((4′-cyano-3′-fluoro-[1,1′-biphenyl]-4-yl)methyl)-N-(2-hydroxy-2-(4-methyl-1-oxo-1,3-dihydroisobenzofuran-5-yl)ethyl)acetamide], the IC50 stood at 780 nM. On to `Cc1cn(-c2cc(C)c(CNC[C@H](O)c3ccc4c(c3C)COC4=O)cn2)cn1` [Example 76, (R)-5-(1-hydroxy-2-(((4-methyl-6-(4-methyl-1H-imidazol-1-yl)pyridin-3-yl)methyl)amino)ethyl)-4-methylisobenzofuran-1(3H)-one], for which the IC50 turned out to be 81 nM.

For the compound `Cc1cn(-c2ncc(CNC[C@H](O)c3ccc4c(c3C)COC4=O)cn2)c(C2CC2)n1` [Example 153, (R)-5-(2-(((2-(2-cyclopropyl-4-methyl-1H-imidazol-1-yl)pyrimidin-5-yl)methyl)amino)-1-hydroxyethyl)-4-methylisobenzofuran-1(3H)-one], the IC50 amounted to 520 nM. Regarding `COc1cc(-n2cnc(C)c2)ncc1CNC[C@H](O)c1ccc2c(c1C)COC2=O` [Example 89, (R)-5-(1-hydroxy-2-(((4-methoxy-6-(4-methyl-1H-imidazol-1-yl)pyridin-3-yl)methyl)amino)ethyl)-4-methylisobenzofuran-1(3H)-one], the IC50 is 92 nM. For `CCn1c(=O)oc2ccc(-n3cc(CNC[C@H](O)c4ccc5c(c4C)COC5=O)cn3)cc21` [Example 125, (R)-3-ethyl-5-(4-(((2-hydroxy-2-(4-methyl-1-oxo-1,3-dihydroisobenzofuran-5-yl)ethyl)amino)methyl)-1H-pyrazol-1-yl)benzo[d]oxazol-2(3H)-one], the IC50 was found to be 390 nM.

Regarding `Cc1c([C@@H](O)CNCc2cnn(-c3cc(OC(C)C)c(C#N)cn3)c2)ccc2c1COC2=O` [Example 157, (R)-6-(4-(((2-hydroxy-2-(4-methyl-1-oxo-1,3-dihydroisobenzofuran-5-yl)ethyl)amino)methyl)-1H-pyrazol-1-yl)-4-isopropoxynicotinonitrile], the IC50 worked out at 31 nM.

For the compound `Cc1c(C(O)CNCc2ccc(-c3ccc(C#N)c(F)c3)cc2)ccc2c1COC2=O` (single isomer, unassigned) [Example 10-II, 3-fluoro-4′-(((2-hydroxy-2-(4-methyl-1-oxo-1,3-dihydroisobenzofuran-5-yl)ethyl)amino)methyl)-[1,1′-biphenyl]-4-carbonitrile], the IC50 was 140 nM. For the compound `Cc1cn(-c2ncc(CNC[C@H](O)c3ccc4c(c3C)COC4=O)cc2F)cn1` (single isomer, unassigned) [Example 83], the IC50 was found to be 46 nM. With `Cc1nnn(-c2ccc(CNC[C@H](O)c3ccc4c(c3C)COC4=O)cn2)n1` [Example 127, (R)-5-(1-hydroxy-2-(((6-(5-methyl-2H-tetrazol-2-yl)pyridin-3-yl)methyl)amino)ethyl)-4-methylisobenzofuran-1(3H)-one], the concentration for half-maximal inhibition (IC50) came out at 420 nM. For the compound `Cc1cc(-n2nc(C)c(CNC[C@H](O)c3ccc4c(c3C)COC4=O)n2)ncc1C#N` [Example 58, (R)-6-(4-(((2-hydroxy-2-(4-methyl-1-oxo-1,3-dihydroisobenzofuran-5-yl)ethyl)amino)methyl)-5-methyl-2H-1,2,3-triazol-2-yl)-4-methylnicotinonitrile], the IC50 worked out at 300 nM. `Cc1c(C(O)CN(Cc2ccc(-c3ccc(C#N)c(F)c3)cc2)Cc2cccnc2)ccc2c1COC2=O` (centres unmarked) [Example 11-I, 3-fluoro-4′-(((2-hydroxy-2-(4-methyl-1-oxo-1,3-dihydroisobenzofuran-5-yl)ethyl)(pyridin-3-ylmethyl)amino)methyl)-[1,1′-biphenyl]-4-carbonitrile]: the IC50 turned out to be 3700 nM.
